Holding throughout (format): cell-based, hepatitis C virus
The test system of test [1] is HCV JFH1 strain. Conditions: for Promotion ratio (HCV particle production-promoting effect): added after HCV adsorption, 46 h culture, Huh7-it cells, moi=0.1, control (DMSO) = 1.0. On the procedure: In this example, the purified lovastatin solution “B15.4.1” (FIG. 1) of Example 1 was used as the “HCV particle formation promoter.” A lovastatin solution prepared by adding a culture medium to the HCV particle formation promoter to adjust each lovastatin concentration at the time of virus inoculation and at the time of culture to from 1.25 to 20 μg/ml was used in the following.
In this example, Huh7-it cells, a highly HCV-permissive cell line derived from Huh7 cells, were used as culture cells. The medium used was Dulbecco's modified Eagle's medium supplemented with 10% fetal calf serum, non-essential amino acids, penicillin, and streptomycin, and the cells were cultured using a 48-well culture plate.
A HCV stock solution to be used to promote formation of HCV particles was prepared by the following method. The HCV strain used was JFH1 strain (genome sequence: GenBank accession number AB047639). RNA having the same sequence as that of the full genome of the HCV JFH1 strain was introduced (transfected) into Huh7-it cells by an electroporation method (van den Hoff M J et al., Nucleic Acids Res., 20:2902, 1992), and the culture supernatant 72 hours after the introduction was collected. The collected culture supernatant was passed through a 0.45-μm filter (Millipore) to remove contaminants, and then added to other Huh7-it cells. An infectivity titer was calculated by measuring the number of HCV-infected cells after 72 hours by a focus method, and a solution adjusted to have an infectivity titer of 5.4×10^4 infectious units/ml was used as the HCV stock solution. The infectivity titer to prepare the HCV stock solution was calculated by an immunostaining method. An anti-HCV-core (clone CP14) monoclonal antibody was used as a primary antibody, and a HRP-labeled goat anti-mouse antibody was used as a labeling antibody. Konica Immunostain HRP-1000 (Konica Minolta) was added, and the number of virus antigen-positive cell populations stained in blue (immunofocus; also called focus) was measured under a microscope. Thus, the infectivity titer was calculated.
A mixture of the HCV stock solution (5.4×10^4 infectious units/ml) prepared in the above-mentioned section 3) and the HCV particle formation promoter was inoculated into culture cells, and the virus was adsorbed to the cells at 37° C. for 2 hours. Then, the virus liquid was removed, and the cells were washed three times with a culture medium. After that, in the same manner as described above, the cells were cultured for […] with the addition of the HCV particle formation promoter (lovastatin concentration: 1.25 to 20 μg/ml). The virus was inoculated into the culture cells so that the multiplicity of infection (moi) was 0.1.
To confirm a virus-producing ability, the culture medium of the infected cells was centrifuged at 10,000 rpm for 3 minutes, and the centrifugation supernatant was used as a sample liquid. The sample liquid was inoculated into non-HCV-infected Huh7-it cells. […] The number of staining-positive cells was measured, and the HCV infectivity titer was measured.
In this example, the crude lovastatin solution “B15” (FIG. 1) of Example 1 was used as the “HCV particle formation promoter.” A lovastatin solution prepared by adding a culture medium to the HCV particle formation promoter to adjust each lovastatin concentration at the time of virus inoculation and at the time of culture to from 1 to 50 μg/ml was used in the following.
In this example, HCV was inoculated into culture cells to achieve moi=0.1 as in Example 2, and the HCV particle formation promoter was added at the following timings i) to iii).
A mixture of HCV and the HCV particle formation promoter was inoculated into culture cells, and the virus was adsorbed to the cells at 37° C. for 2 hours. Then, the virus liquid was removed, and the cells were washed three times with a culture medium. After that, the cells were cultured for 46 hours with the addition of the HCV particle formation promoter containing lovastatin. […]

Test [2] has as its system HCV JFH1 strain. The note with it: added after HCV adsorption, 46 h culture, Huh7-it cells, moi=0.1, control (DMSO) = 1.0.
Test [3] concerns HCV JFH1 strain. As to the kind of experiment: Intracellular HCV infectivity titer in Huh7-it cells (freeze-thawing method). Conditions: Example 5; 20 μg/ml lovastatin, from adsorption to 48 h after infection; versus DMSO control (FIG. 5). On the procedure:
In this example, culture cells were prepared in the same manner as in Example 2 to confirm the influence on the HCV infectivity titer inside and outside Huh7-it cells in adding the HCV particle formation promoter to the cells over a period of from during HCV adsorption to 48 hours after HCV infection. In this example, the purified lovastatin solution “B15.4.1” (FIG. 1) of Example 1 was used as the HCV particle formation promoter. A lovastatin solution prepared by adding a culture medium to the HCV particle formation promoter to adjust each lovastatin concentration at the time of virus inoculation and at the time of culture to 20 μg/ml was used in the following. A system containing dimethylsulfoxide (DMSO) in place of the HCV particle formation promoter was used as a control.
A sample to measure an extracellular HCV infectivity titer was prepared in the same manner as in Example 2. A sample to measure an intracellular HCV infectivity titer was prepared by a freeze-thawing method. First, infected cells were washed with PBS and then detached by trypsin/EDTA treatment, followed by centrifugation to collect a cell pellet. The cell pellet was washed once with PBS, suspended in 0.5 ml of a culture medium, and freeze-thawed at −80° C. three times repeatedly, followed by centrifugation at 12,000 rpm for 5 minutes. […] Each sample was measured for its virus titer in the same manner as in Example 2.

Another test has as its system HCV RNA. As to the kind of experiment: Intracellular HCV RNA copy number by quantitative RT-PCR in Huh7-it cells. The note with it: Example 6; 20 μg/ml lovastatin; days 1, 2, 3 and 4 after infection; versus DMSO control (FIG. 6). On the procedure:
In this example, culture cells were prepared in the same manner as in Example 2 to confirm the influence on the HCV RNA copy number in the culture cells on days 1, 2, 3, and 4 after HCV infection in adding the HCV particle formation promoter to Huh7-it cells over a period of from during HCV adsorption to 48 hours after HCV infection. In this example, the purified lovastatin solution “B15.4.1” (FIG. 1) of Example 1 was used as the HCV particle formation promoter. A lovastatin solution prepared by adding a culture medium to the HCV particle formation promoter to adjust each lovastatin concentration at the time of virus inoculation and at the time of culture to 20 μg/ml was used in the following. A system containing DMSO in place of the HCV particle formation promoter was used as a control.
A sample to measure an intracellular HCV RNA copy was prepared in the same manner as in Example 5. Total RNA was extracted from infected cells using Trizol®/Trizol®-LS (Invitrogen). cDNA was synthesized from the total RNA by performing a reverse transcription reaction at 37° C. for 15 minutes and an enzyme inactivation reaction at 98° C. for 5 minutes through the use of a ReverTra Ace® qPCR-Kit (Toyobo). The HCV RNA copy number was measured by a quantitative RT-PCR method using a LightCycler® 480 real-time PCR system. […]

In the next test the test system is HCV protein (antigen). As to the kind of experiment: Intracellular HCV protein (antigen) synthesis by immunostaining in Huh7-it cells. Conditions: Example 6, 20 μg/ml lovastatin, versus DMSO control (FIG. 7).

Like-named read-outs stand apart in the source and are kept apart here.

In the case of `CC[C@H](C)C(=O)O[C@H]1C[C@H](O)C=C2C=C[C@H](C)[C@H](CC[C@@H](O)C[C@@H](O)CC(=O)O)[C@H]21` [Pravastatin, (1S,βR,δR,8aβ)-1,2,6,7,8,8a-hexahydro-β,δ,6β-trihydroxy-2β-methyl-8α-[(S)-2-methyl-1-oxobutoxy]-1β-naphthaleneheptanoate], the “Promotion ratio (HCV particle production-promoting effect)” value (from here on “Promotion ratio”) with HCV JFH1 strain [1] (5.0 μg/ml) is 0.6; in the test on HCV JFH1 strain [1] (20.0 μg/ml) it was 2.7; in the test on HCV JFH1 strain [2] (80.0 μg/ml), 17.2; in the test with HCV JFH1 strain [2] (200.0 μg/ml), 24.7.

As to `CC(C)n1c(/C=C/[C@@H](O)C[C@@H](O)CC(=O)[O-])c(-c2ccc(F)cc2)c2ccccc21.[Na+]` [Fluvastatin, sodium (3R,5S,6E)-7-[3-(4-fluorophenyl)-1-(1-methylethyl)-1H-indol-2-yl]-3,5-dihydroxy-6-heptenoate], the “Promotion ratio” value with HCV JFH1 strain [1] (1.25 μg/ml) came out at 9.2; with HCV JFH1 strain [1] (2.5 μg/ml), 14.3; in the test with HCV JFH1 strain [1] (5.0 μg/ml), 15.2; in the test on HCV JFH1 strain [1] (20.0 μg/ml) it was 7.9.

In the case of `CC[C@H](C)C(=O)O[C@H]1C[C@@H](C)C=C2C=C[C@H](C)[C@H](CC[C@@H]3C[C@@H](O)CC(=O)O3)[C@H]21` [Lovastatin, (1S,3R,7S,8S,8aR)-8-[2-((2R,4R)-4-hydroxy-6-oxotetrahydro-2H-pyran-2-yl)ethyl]-3,7-dimethyl-1,2,3,7,8,8a-hexahydro-1-naphthyl], the “Promotion ratio” value is 0.8 in the test with HCV JFH1 strain [1] (1.25 μg/ml), 3.5 in the test on HCV JFH1 strain [1] (2.5 μg/ml), 6.1 in the test with HCV JFH1 strain [1] (5.0 μg/ml) and 11.1 with HCV JFH1 strain [1] (20.0 μg/ml).

As for `CCC(C)(C)C(=O)O[C@H]1C[C@@H](C)C=C2C=C[C@H](C)[C@H](CC[C@@H]3C[C@@H](O)CC(=O)O3)[C@H]21` [Simvastatin, (1S,3R,7S,8S,8aR)-8-[2-[(2R,4R)-4-hydroxy-6-oxotetrahydropyran-2-yl]ethyl]-3,7-dimethyl-1,2,3,7,8,8a-hexahydro-1-naphthyl], the “Promotion ratio” value came to 8.5 in the test on HCV JFH1 strain [1] (1.25 μg/ml), 14.8 in the test with HCV JFH1 strain [1] (2.5 μg/ml), 19.5 with HCV JFH1 strain [1] (5.0 μg/ml) and 4.1 with HCV JFH1 strain [1] (20.0 μg/ml).

As for `CC[C@H](C)C(=O)O[C@H]1C[C@@H](C)C=C2C=C[C@H](C)[C@H](CC[C@@H]3C[C@@H](O)CC(=O)O3)[C@H]21` [B15.4.1], the HCV infectivity titer result with HCV JFH1 strain [1] (Example 2, 5 to 20 μg/ml of lovastatin, during adsorption and 48 h culture, Huh7-it cells (FIG. 2)) is listed as “high HCV infectivity titer was found in a lovastatin concentration-dependent manner”. The virus infectivity titer result in the test on HCV JFH1 strain [1] (Example 4, 20 μg/ml lovastatin, added after HCV adsorption (with or without presence during adsorption), 46 h culture (FIG. 4)) is given as “high virus infectivity titer was found”. Also, in the test with HCV JFH1 strain [3], the “intracellular HCV particle-producing ability versus control” value is reported as “substantially no difference”. In the test on HCV RNA, the “intracellular HCV RNA replication amount” value is “not affected”. Moreover, the “intracellular HCV protein (antigen) synthesis amount” value with HCV protein (antigen) is listed as “not affected”.

For `CC(C)c1c(C(=O)Nc2ccccc2)c(-c2ccccc2)c(-c2ccc(F)cc2)n1CC[C@@H](O)C[C@@H](O)CC(=O)O` [Atorvastatin, calcium (3R,5R)-7-[2-(4-fluorophenyl)-5-isopropyl-3-phenyl-4-[(phenylamino)carbonyl]-1H-pyrrol-1-yl]-3,5-dihydroxyheptanoate], the “Promotion ratio” value with HCV JFH1 strain [1] (1.25 μg/ml) turned out to be 0.9; in the test with HCV JFH1 strain [1] (2.5 μg/ml), 4.3; with HCV JFH1 strain [1] (5.0 μg/ml), 9.4; in the test with HCV JFH1 strain [1] (20.0 μg/ml), 9.7.
